Patent publication US20260274814A1, “THIENYL COMPOUNDS FOR THE TREATMENT OF A CENTRAL NERVOUS SYSTEM DISEASE OR DISORDER” (Coreterra Therapeutics, Inc., priority 2023, published 2026)
Where a name gives a salt, the structure may show the parent alone.

Test system: mice
Test: Neuropharmacological Assay (SmartCube): automated behavioral signature of compound-treated mice compared with a database of reference drug classes
Format: in vivo
Conditions: for MED / minimal effective dose: minimal effective dose: dose having 45% or more total activity in SmartCube, i.p., that dose is shown; for minimal effective dose: Mus musculus, ip, read-out: MED
Method in brief: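 Dose-response work typically spanned 0.3–10 mpk, widened or narrowed to obtain a full curve, with i.p. administration 15 min pre-test. MED is defined as the dose producing ≥45% total SmartCube activity; single-dose entries list the tested dose.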

[1] = SmartCube class probability, 3.0 mg/kg i.p., 15 min before test
[2] = SmartCube probability class, 3.0 mg/kg dose, i.p. 15 min before the behavioral test
[3] = SmartCube probability class, 3.0 mg/kg dose, i.p. 15 min before the behavioral test, hydrochloride, 3 mg/kg
[4] = SmartCube probability class, 3.0 mg/kg dose, i.p. 15 min before the behavioral test, formate salt, 3 mg/kg

| SMILES | minimal effective dose (if only one dose was tested) | AD [2] | AG [2] | AN [2] | AP [2] | AX [2] | CE [2] | HL [2] | MS [2] | PS [2] | SH [2] | UK [3] | MED (if only one dose was tested) | UK [2] | further results |
| --- | --- | --- | --- | --- | --- | --- | --- | --- | --- | --- | --- | --- | --- | --- | --- |
| NC1CCc2scc(C3CC3)c2C1 (single isomer, unassigned) [Compound 278, 3-cyclopropyl-4,5,6,7-tetrahydrobenzothiophen-5-amine hydrochloride] |  |  |  |  |  |  |  |  |  |  |  |  |  |  | AD [1]: ND (^ <4%); UK [1]: + (≥4%); MED (if only one dose tested): >3 mpk |
| CCc1csc2c1CC(N)CC2 (single isomer, unassigned) [Compound 279, 3-ethyl-4,5,6,7-tetrahydrobenzothiophen-5-amine hydrochloride] | 3 mg/kg | ND (^ <4%) | ND (^ <4%) | ND (^ <4%) | ND (^ <4%) | ND (^ <4%) | ND (^ <4%) | ND (^ <4%) | ND (^ <4%) | ND (^ <4%) | ND (^ <4%) | ++ (≥24%) |  |  |  |
| CCc1csc2c1CC(N)CC2 (single isomer, unassigned) [Compound 280, 3-ethyl-4,5,6,7-tetrahydrobenzothiophen-5-amine hydrochloride] |  | ND (^ <4%) | ND (^ <4%) | ND (^ <4%) | ND (^ <4%) | ND (^ <4%) | ND (^ <4%) | ND (^ <4%) | ND (^ <4%) | ND (^ <4%) | ND (^ <4%) | +++ (≥49%) | 3 mpk |  |  |
| CC1(N)CCc2sccc2C1 (single isomer, unassigned) [Compound 281, 5-methyl-4,5,6,7-tetrahydrobenzo[b]thiophen-5-amine hydrochloride] | 3 mg/kg | ++++ (≥74%) | ND (^ <4%) | ND (^ <4%) |  |  | ND (^ <4%) | ND (^ <4%) | ND (^ <4%) | ND (^ <4%) | ND (^ <4%) |  |  | ND (^ <4%) | AP [3]: + (≥4%); AX [3]: + (≥4%) |
| CC1(N)CCc2sccc2C1 (single isomer, unassigned) [Compound 282, 5-methyl-4,5,6,7-tetrahydrobenzo[b]thiophen-5-amine hydrochloride] |  | ++++ (≥74%) | ND (^ <4%) | ND (^ <4%) |  |  | ND (^ <4%) | ND (^ <4%) | ND (^ <4%) | ND (^ <4%) | ND (^ <4%) |  | 3 mpk | ND (^ <4%) | AP [3]: ND (^ <4%); AX [3]: ND (^ <4%) |
| CC1(N2CCCC2)CCc2sccc2C1.Cl (single isomer, unassigned) [Compound 283, 1-(5-methyl-4,5,6,7-tetrahydrobenzo[b]thiophen-5-yl)pyrrolidine hydrochloride] | 3 mg/kg | ND (^ <4%) | ND (^ <4%) | ND (^ <4%) | ND (^ <4%) | ND (^ <4%) | ND (^ <4%) | ND (^ <4%) | ND (^ <4%) | ND (^ <4%) | ND (^ <4%) | + (≥4%) |  |  |  |
| CC1(N2CCCC2)CCc2sccc2C1.Cl (single isomer, unassigned) [Compound 284, 1-(5-methyl-4,5,6,7-tetrahydrobenzo[b]thiophen-5-yl)pyrrolidine hydrochloride] |  | ND (^ <4%) | ND (^ <4%) | ND (^ <4%) | ND (^ <4%) | ND (^ <4%) | ND (^ <4%) | ND (^ <4%) | ND (^ <4%) | ND (^ <4%) | ND (^ <4%) | ++ (≥24%) | 3 mpk |  |  |
| CNC1COc2scc(C(F)(F)F)c2C1 (single isomer, unassigned) [Compound 289, N-methyl-5-(trifluoromethyl)-3,4-dihydro-2H-thieno[2,3-b]pyran-3-amine hydrochloride] | > 3 mg/kg | ND (^ <4%) | ND (^ <4%) | ND (^ <4%) | ND (^ <4%) | ND (^ <4%) | ND (^ <4%) | ND (^ <4%) | ND (^ <4%) | ND (^ <4%) | ND (^ <4%) |  |  | + (≥4%) |  |
| CNC1COc2scc(C(F)(F)F)c2C1 (single isomer, unassigned) [Compound 290, N-methyl-5-(trifluoromethyl)-3,4-dihydro-2H-thieno[2,3-b]pyran-3-amine hydrochloride] |  | ND (^ <4%) |  |  |  |  |  |  |  |  |  |  | >3 mpk | + (≥4%) |  |
| CCC1(NC)CCc2sccc2C1 (single isomer, unassigned) [Compound 291, 5-ethyl-N-methyl-6,7-dihydro-4H-benzothiophen-5-amine hydrochloride] | > 3 mg/kg | ND (^ <4%) | ND (^ <4%) | ND (^ <4%) | ND (^ <4%) | ND (^ <4%) | ND (^ <4%) | ND (^ <4%) | ND (^ <4%) | ND (^ <4%) | ND (^ <4%) | + (≥4%) |  |  |  |
| CCC1(NC)CCc2sccc2C1 (single isomer, unassigned) [Compound 292, 5-ethyl-N-methyl-6,7-dihydro-4H-benzothiophen-5-amine hydrochloride] |  | ND (^ <4%) | ND (^ <4%) | ND (^ <4%) | ND (^ <4%) | ND (^ <4%) | ND (^ <4%) | ND (^ <4%) | ND (^ <4%) | ND (^ <4%) | ND (^ <4%) | ++ (≥24%) | >3 mpk |  |  |
| CNC1COc2sccc2C1 (single isomer, unassigned) [Compound 293, N-methyl-3,4-dihydro-2H-thieno[2,3-b]pyran-3-amine formate salt] | < 3 mg/kg | ND (^ <4%) | ND (^ <4%) | ND (^ <4%) |  | ND (^ <4%) | ND (^ <4%) | ND (^ <4%) | ND (^ <4%) | ND (^ <4%) | ND (^ <4%) |  |  |  | AP [4]: ++++ (≥74%); UK [4]: ND (^ <4%) |
| CNC1COc2sccc2C1 (single isomer, unassigned) [Compound 294, N-methyl-3,4-dihydro-2H-thieno[2,3-b]pyran-3-amine formate salt] |  | ND (^ <4%) | ND (^ <4%) | ND (^ <4%) |  | ND (^ <4%) | ND (^ <4%) | ND (^ <4%) | ND (^ <4%) | ND (^ <4%) | ND (^ <4%) |  |  |  | AP [4]: ND (^ <4%); UK [4]: + (≥4%); MED (if only one dose was tested, formate salt): >3 mpk |
